In patent US20250136576A1, “Heterocyclic Compounds and Uses Thereof” (ACEA Therapeutics, Inc., priority 2021, published 2025):

Legend:
Assay type in all cases: cell-based
MV-4-11 (AML) cells = experiment: Cell proliferation and growth inhibition assay (CCK-8) in MV-4-11; conditions: Homo sapiens, MV4-11; MV-4-11 cells, treated with test compounds for 72 hrs, CCK-8 viability
Description: MV-4-11 and H1975 cells were obtained from the American Type Culture Collection and KM12-luc cells were obtained from JCRB Cell Bank. All cell lines were maintained at 37° C. with 5% C02, in media supplemented with 10% fetal bovine serum and penicillin (100 units/mL) and streptomycin (100 μg/mL). MV-4-11 cells were maintained in Iscove's Modified Dubecco's Medium, H1975 cells were cultured with RPMI 1640 media, and KM12-luc cells were maintained in Dulbecco's Modification of Eagle's Medium. CCK-8 reagent was obtained from Yeasen.
Cell proliferation was assessed by CCK-8 assay (Yeasen) per the manufacturer's instructions. The MV-4-11 (AML), H1975, and KM12-luc cells were seeded at 30,000, 3,000 and 2,500 cells per well onto 96-well plates, and after a 24 h incubation, the cells were treated with test compounds for 72 hrs. Cell viability was assayed by incubating the cells with CCK-8 reagent for 1-4 hrs. Absorbance was measured at OD450 using the Beckman DTX880. The data was calculated using GraphPad Prism version 6.01. The IC50 values were fitted using a non-linear regression model with a sigmoidal dose response.

KM12-luc cells = experiment: Cell proliferation and growth inhibition assay (CCK-8) in KM12-luc; conditions: KM12-Luc, 72 h, KM12-luc cells, treated with test compounds for 72 hrs, CCK-8 viability; read-out: NTRK IC50 in KM12-luc
Method in brief: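 IC50 values were fitted by sigmoidal dose-response non-linear regression of CCK-8 OD450 absorbance after 1-4 hrs with reagent. Culture media were IMDM for MV-4-11, RPMI 1640 for H1975 and DMEM for KM12-luc, each with 10% FBS at 37 °C, 5% CO2.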

H1975 cells = experiment: Cell proliferation and growth inhibition assay (CCK-8) in H1975; conditions: Homo sapiens, NCI-H1975, 72 h, treated with test compounds for 72 hrs, CCK-8 viability, read-out: EGFR IC50 in H1975
Method in brief: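 Cells seeded at 30,000 (MV-4-11, IMDM) or 3,000 (H1975, RPMI 1640) per well, left 24 h, then compound-treated 72 h at 37 °C, 5% CO2, 10% FBS. Viability read by CCK-8 (1–4 h) at OD450. IC50 from sigmoidal dose-response nonlinear regression.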

Row | SMILES | IC50 (MV-4-11 (AML) cells) [nM] | IC50 (KM12-luc cells) [nM] | IC50 (H1975 cells) [nM]
1 | CC(=O)Nc1cc(Nc2ncc(C(F)(F)F)c(-c3c[nH]c4c(C)cccc34)n2)ccc1N(C)CCN(C)C [Compound 358, N-(2-((2-(dimethylamino)ethyl)(methyl)amino)-5-((4-(7-methyl-1H-indol-3-yl)-5-(trifluoromethyl)pyrimidin-2-yl)amino)phenyl)acetamide] | 4.4 | 3.1 | 47
2 | CC(=O)Nc1cc(Nc2ncc(Cl)c(-c3c[nH]c4ccccc34)n2)ccc1N(C)C(=O)CCN(C)C [Compound 446, N-(2-acetamido-4-((5-chloro-4-(1H-indol-3-yl)pyrimidin-2-yl)amino)phenyl)-3-(dimethylamino)-N-methylpropanamide] | 10.6 | 4.9 | 667
3 | CC(=O)Nc1cc(Nc2ncc(C(F)(F)F)c(-c3c[nH]c4c(F)cccc34)n2)ccc1N1CC[C@@H](N(C)C)C1 [Compound R-344, (R)—N-(2-(3-(dimethylamino)pyrrolidin-1-yl)-5-((4-(7-fluoro-1H-indol-3-yl)-5-(tri-fluoromethyl)pyrimidin-2-yl)amino)phenyl)acetamide] | 5.4 | 7.4 | 205
4 | Cc1cccc2c(-c3nc(Nc4ccc(N(C)CCN(C)C)c(N)c4)ncc3C(F)(F)F)c[nH]c12 [Compound 359, N^1-(2-(dimethylamino)ethyl)-N^1-methyl-N^4-(4-(7-methyl-1H-indol-3-yl)-5-(trifluoromethyl)pyrimidin-2-yl)benzene-1,2,4-triamine] | 5.9 | 5.5 | 120
5 | CN(C)CCN(C)c1ccc(Nc2ncc(C(F)(F)F)c(-c3c[nH]c4c(F)cccc34)n2)cc1N [Compound 335, N^1-(2-(dimethylamino)ethyl)-N^1-methyl-N^4-(4-(7-fluoro-1H-indol-3-yl)-5-(trifluoromethyl)pyrimidin-2-yl)benzene-1,2,4-triamine] | 3.1 | 6.1 | 75.4
6 | CCN(CCN(C)C)c1ccc(Nc2ncc(C(F)(F)F)c(-c3c[nH]c4cccc(F)c34)n2)cc1N [Compound 319, N^1-(2-(dimethylamino)ethyl)-N^1-ethyl-N^4-(4-(4-fluoro-1H-indol-3-yl)-5-(trifluoromethyl)pyrimidin-2-yl)benzene-1,2,4-triamine] | 29.7 | 19.1 | 772
7 | CCN(CCN(C)C)c1ccc(Nc2ncc(C(F)(F)F)c(-c3c[nH]c4c(F)cccc34)n2)cc1N [Compound 337, N^1-(2-(dimethylamino)ethyl)-N^1-ethyl-N^4-(4-(7-fluoro-1H-indol-3-yl)-5-(trifluoromethyl)pyrimidin-2-yl)benzene-1,2,4-triamine] | 11.1 | 10.4 | 366
8 | CC(=O)Nc1cc(Nc2ncc(C(F)(F)F)c(-c3c[nH]c4c(C)cccc34)n2)ccc1N1CC[C@@H](N(C)C)C1 [Compound R-366, (R)—N-(2-(3-(dimethylamino)pyrrolidin-1-yl)-5-((4-(7-methyl-1H-indol-3-yl)-5-(trifluoromethyl)pyrimidin-2-yl)amino)phenyl)acetamide] | 5.3 | 5.2 | 88.6
9 | CCC(=O)Nc1cccc(Nc2ncc(Cl)c(Nc3ccc(C4CCCN(C)C4)cc3OC)n2)c1 (stereo not drawn) [Compound 166, N-(3-((5-chloro-4-((2-methoxy-4-(1-methylpiperidin-3-yl)phenyl)amino)pyrimidin-2-yl)amino)phenyl)propionamide] | 96.8 | 39.5 | 691
